Where a name gives a salt, the structure may show the parent alone.
Assays:
[1] = system: human melanoma A375 cells; assay: Tumor cell proliferation assay (ATP Lite), A375; assay type: cell-based; settings: A-375, 96 h, 4 days
Experimental: (§1) Assay 2: Tumor Cell Proliferation Assays (ATP Lite)
(§2) Murine colon C26, human melanoma A375 and MeI5 or human pancreatic MiaPaCa-2 cells were plated in 96 well Corning white plates (1500 cells/well for C26, and 2000 cells/well for A375, and MiaPaCa-2) and cultured overnight at 37° C. in 5% CO2. Inhibitors were serially diluted in 100% DMSO and subsequently added to cells to reach a final concentration of 0.25% DMSO. The cells were incubated for 4 days in the presence of test compounds in cell growth media (DMEM with 10% fetal bovine serum, 2 mM glutamine for C26, and MiaPaCa-2, and RPMI with 10% fetal bovine serum, 2 mM glutamine for A375). Cell proliferation was quantitated using the ATP lite cell proliferation kit (Packard). Columns 4-6 show the concentration of compounds required to induce 50% cell death (IC50 in μM) of […]. With “+” meaning 3 μM<IC50≦10 μM and “++” IC50≦3 μM and “n.d.” means not determined. Few compounds were also tested on human melanoma cell MeI5.

human MEK1 = human MEK1 (Homo sapiens, UniProt Q02750); assay: MEK-1 Enzyme Assay (LANCE-HTRF); assay type: biochemical; settings: 100 nM MEK1, 15 μM ATP, 300 nM ERK2, two hours; read-out: MEK inhibition
Chain of human MEK1 (Q02750 whole entry): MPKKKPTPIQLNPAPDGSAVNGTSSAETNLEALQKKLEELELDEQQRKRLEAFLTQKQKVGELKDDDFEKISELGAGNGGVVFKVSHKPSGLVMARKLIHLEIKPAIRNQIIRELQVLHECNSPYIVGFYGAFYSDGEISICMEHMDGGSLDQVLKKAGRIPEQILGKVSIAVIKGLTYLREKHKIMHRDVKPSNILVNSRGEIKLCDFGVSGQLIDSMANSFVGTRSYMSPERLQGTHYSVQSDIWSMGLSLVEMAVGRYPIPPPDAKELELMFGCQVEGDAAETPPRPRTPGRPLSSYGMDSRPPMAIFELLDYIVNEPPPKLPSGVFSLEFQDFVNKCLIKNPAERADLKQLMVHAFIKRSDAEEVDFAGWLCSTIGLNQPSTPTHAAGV
Experimental: Assay 1: MEK-1 Enzyme Assay (LANCE-HTRF)
The activity of the compounds of the present invitation may be determined by the following procedure; Inhibition of human MEK1 kinase activity was monitored with a homogenous, fluorescence based assay. The assay uses time resolved fluorescence resonance energy transfer to probe for phosphorylation of ERK1 by MEK1. The assay is carried out in low volume 96 well microtiterplates. […] After two hours, 5 nM Europium-anti-PY20 (Perkin Elmer) and 50 nM Anti-GST-Allophycocyanin (CisBio) in buffer containing 50 mM EDTA and 0.05% BSA are added and the reaction incubated for one hour in the dark. Time-resolved fluorescence is measured using a LJL-Analyst (Molecular Devices) with an excitation wavelength of 340 nm and an emission wavelength of 665 nm. The final concentration of DMSO is 2%.

Murine colon C26 cells = assay: Tumor cell proliferation assay (ATP Lite), C26; assay type: cell-based; settings: Mus musculus, 96 h, 4 days
Experimental: as §1, §2

[2] = system: human pancreatic MiaPaCa-2 cells; assay: Tumor cell proliferation assay (ATP Lite), MiaPaCa-2; assay type: cell-based; settings: MIA PaCa-2, 96 h, 4 days
Experimental: as §1, §2

Row | IC50 [1] | IC50 (human MEK1) | IC50 (Murine colon C26 cells) | IC50 [2] | Compound
1 | ≤ 3 µM | < 1000 nM | 3 to 10 µM | 3 to 10 µM | O=C(NCc1ccccc1)c1ccncc1Nc1ccc(I)cc1F [Example 21, N-benzyl-3-[(2-fluoro-4-iodophenyl)amino]isonicotinamide]
2 | ≤ 3 µM | < 1000 nM | ≤ 3 µM | ≤ 3 µM | CNC(=O)c1ccncc1Nc1ccc(I)cc1Cl [Example 22, 3-[(2-chloro-4-iodophenyl)amino]-N-methylisonicotinamide]
3 | ≤ 3 µM | < 1000 nM | ≤ 3 µM | ≤ 3 µM | CN(C)C(=O)c1ccncc1Nc1ccc(I)cc1Cl [Example 23, 3-[(2-chloro-4-iodophenyl)amino]-N-dimethylisonicotinamide]
4 | ≤ 3 µM | < 1000 nM | ≤ 3 µM | ≤ 3 µM | COCCN(C)C(=O)c1ccncc1Nc1ccc(I)cc1F [Example 24, 3-[(2-fluoro-4-iodophenyl)amino]-N-(2-methoxyethyl)-N-methyl-isonicotinamide]
5 | ≤ 3 µM | < 1000 nM | ≤ 3 µM | ≤ 3 µM | O=C(NN1CCOCC1)c1ccncc1Nc1ccc(I)cc1F [Example 25, 3-[(2-fluoro-4-iodophenyl)amino]-N-morpholin-4-ylisonicotin-amide]
6 | ≤ 3 µM | < 1000 nM | 3 to 10 µM | 3 to 10 µM | O=C(NCCOc1ccccc1)c1ccncc1Nc1ccc(I)cc1F [Example 26, 3-[(2-fluoro-4-iodophenyl)amino]-N-(2-phenoxyethyl)-isonicotinamide]
7 | 3 to 10 µM | < 1000 nM | 3 to 10 µM | 3 to 10 µM | COc1ccccc1CCNC(=O)c1ccncc1Nc1ccc(I)cc1F [Example 27, 3-[(2-fluoro-4-iodophenyl)amino]-N-[2-(2-methoxyphenyl)-ethyl]isonicotinamide]
8 | ≤ 3 µM | < 1000 nM | 3 to 10 µM | 3 to 10 µM | O=C(NNC(=O)c1n[nH]c2ccccc12)c1ccncc1Nc1ccc(I)cc1F [Example 28, N′-{3-[(2-fluoro-4-iodophenyl)amino]isonicotinoyl}-1H-indazole-3-carbohydrazide]
9 | ≤ 3 µM | < 1000 nM | 3 to 10 µM | 3 to 10 µM | O=C(NCCc1cccc(Cl)c1)c1ccncc1Nc1ccc(I)cc1F [Example 29, N-[2-(3-chlorophenyl)ethyl]-3-[(2-fluoro-4-iodophenyl)-amino]isonicotinamide]
10 | ≤ 3 µM | < 1000 nM | ≤ 3 µM | ≤ 3 µM | O=C(NCCCN1CCCC1=O)c1ccncc1Nc1ccc(I)cc1F [Example 30, 3-[(2-fluoro-4-iodophenyl)amino]-N-[3-(2-oxopyrrolidin-1-yl)propyl]isonicotinamide]
11 | ≤ 3 µM | < 1000 nM | ≤ 3 µM | ≤ 3 µM | NC(=O)c1ccnc(Cl)c1Nc1ccc(I)cc1F [Example 31, 2-Chloro-3-(2-fluoro-4-iodo-phenylamino)-isonicotinamide]
12 | ≤ 3 µM | < 1000 nM | ≤ 3 µM | ≤ 3 µM | O=C(NNc1ccccc1)c1ccncc1Nc1ccc(I)cc1F [Example 32, 3-[(2-fluoro-4-iodophenyl)amino]-N′-phenylisonicotinohydrazide]
13 | ≤ 3 µM | < 1000 nM | ≤ 3 µM | ≤ 3 µM | O=C(NCCN1CCCCC1)c1ccncc1Nc1ccc(I)cc1F [Example 33, 3-[(2-fluoro-4-iodophenyl)amino]-N-(2-piperidin-1-ylethyl)-isonicotinamide]
14 | ≤ 3 µM | < 1000 nM | 3 to 10 µM | 3 to 10 µM | CC(C)(C)OC(=O)NC1CCN(C(=O)c2ccncc2Nc2ccc(I)cc2F)CC1 [Example 34, tert-butyl(1-{3-[(2-fluoro-4-iodophenyl)amino]isonicotinoyl}-piperidin-4-yl)carbamate]
15 | ≤ 3 µM | < 1000 nM | ≤ 3 µM | ≤ 3 µM | O=C(NCCCN1CCOCC1)c1ccncc1Nc1ccc(I)cc1F [Example 35, 3-[(2-fluoro-4-iodophenyl)amino]-N-(3-morpholin-4-ylpropyl)-isonicotinamide]
16 | ≤ 3 µM | < 1000 nM | ≤ 3 µM | ≤ 3 µM | O=C(NCCCCCO)c1ccncc1Nc1ccc(I)cc1Cl [Example 36, 3-(2-Chloro-4-iodo-phenylamino)-N-(5-hydroxy-pentyl)-isonicotinamide]
17 | ≤ 3 µM | < 1000 nM | ≤ 3 µM | ≤ 3 µM | O=C(NCCCCO)c1ccncc1Nc1ccc(I)cc1F [Example 39, 3-[(2-fluoro-4-iodophenyl)amino]-N-(4-hydroxybutyl)-isonicotinamide]
18 | ≤ 3 µM | < 1000 nM | 3 to 10 µM | 3 to 10 µM | O=C(NCc1ccccn1)c1ccncc1Nc1ccc(I)cc1F [Example 40, 3-[(2-fluoro-4-iodophenyl)amino]-N-(pyridin-2-ylmethyl)-isonicotinamide]
19 | ≤ 3 µM | < 1000 nM | ≤ 3 µM | ≤ 3 µM | C[C@H](O)CNC(=O)c1ccncc1Nc1ccc(I)cc1F [Example 41, 3-[(2-fluoro-4-iodophenyl)amino]-N-[(2S)-2-hydroxypropyl]-isonicotinamide]
20 | ≤ 3 µM | < 1000 nM | 3 to 10 µM | 3 to 10 µM | O=C(NN1CCCCCC1)c1ccncc1Nc1ccc(I)cc1F [Example 42, N-azepan-1-yl-3-[(2-fluoro-4-iodophenyl)amino]isonicotinamide]
21 | ≤ 3 µM | < 1000 nM | 3 to 10 µM | 3 to 10 µM | O=C(NOC[C@H](O)CO)c1ccnc(Cl)c1Nc1ccc(I)cc1F [Example 43, 2-Chloro-N-[(2R)-2,3-dihydroxy-propoxy]-3-(2-fluoro-4-iodo-phenylamino)-isonicotinamide]
22 | ≤ 3 µM | < 1000 nM | 3 to 10 µM | 3 to 10 µM | NC1CCN(C(=O)c2ccncc2Nc2ccc(I)cc2F)CC1 [Example 44, 4-[(4-aminopiperidin-1-yl)carbonyl]-N-(2-fluoro-4-iodophenyl)pyridin-3-amine hydrochloride]
23 | ≤ 3 µM | < 1000 nM | 3 to 10 µM | 3 to 10 µM | CC(C)(C)OC(=O)NNC(=O)c1ccncc1Nc1ccc(I)cc1F [Example 45, tert-butyl 2-{3-[(2-fluoro-4-iodophenyl)amino]-isonicotinoyl}hydrazine-carboxylate]
24 | ≤ 3 µM | < 1000 nM | 3 to 10 µM | 3 to 10 µM | O=C(O)c1ccc(CNC(=O)c2ccncc2Nc2ccc(I)cc2F)cc1 [Example 46, 4-[({3-[(2-fluoro-4-iodophenyl)amino]isonicotinoyl}-amino)methyl]benzoic acid]
25 | ≤ 3 µM | < 1000 nM | ≤ 3 µM | ≤ 3 µM | O=C(NC1CC1)c1ccncc1Nc1ccc(I)cc1F [Example 47, N-cyclopropyl-3-[(2-fluoro-4-iodophenyl)amino]isonicotinamide]
26 | ≤ 3 µM | < 1000 nM | ≤ 3 µM | ≤ 3 µM | C[C@@H](O)CNC(=O)c1ccncc1Nc1ccc(I)cc1F [Example 48, 3-[(2-fluoro-4-iodophenyl)amino]-N-[(2R)-2-hydroxypropyl]-isonicotinamide]
27 | ≤ 3 µM | < 1000 nM | ≤ 3 µM | ≤ 3 µM | O=C(NNc1ccccn1)c1ccncc1Nc1ccc(I)cc1F [Example 49, 3-[(2-fluoro-4-iodophenyl)amino]-N′-pyridin-2-ylisonicotino-hydrazide]
28 | ≤ 3 µM | < 1000 nM | 3 to 10 µM | 3 to 10 µM | O=C(NNc1nccc(C(F)(F)F)n1)c1ccncc1Nc1ccc(I)cc1F [Example 50, 3-[(2-fluoro-4-iodophenyl)amino]-N′-[4-(trifluoromethyl)pyrimidin-2-yl]isonicotinohydrazide]
29 | ≤ 3 µM | < 1000 nM | 3 to 10 µM | ≤ 3 µM | NNC(=O)c1ccncc1Nc1ccc(I)cc1F [Example 51, 3-[(2-fluoro-4-iodophenyl)amino]isonicotinohydrazide]
30 | ≤ 3 µM | < 1000 nM | ≤ 3 µM | ≤ 3 µM | O=C(NCC1CC1)c1ccncc1Nc1ccc(I)cc1F [Example 53, N-(cyclopropylmethyl)-3-[(2-fluoro-4-iodophenyl)amino]-isonicotinamide]

Reference: patent publication US8524911B2, “3-arylamino pyridine derivatives” (Merck Serono SA, priority 2004, dated 2013)
